Legend:
[1] = test system: patients with early AD; test: AFF006 clinical trial: adapted ADAS-cog, adapted ADCS-ADL and Composite score; type: in vivo, human
Text: The present invention provides for the first time an AD treatment that is disease modifying. The effectiveness of the treatment according to the present invention is proven by the parameters required by the drug authorisation authorities, especially the EMEA and the US-FDA. For example, the EMEA guideline for AD treatment requires primary endpoints reflecting the cognitive and the functional domain. Accordingly, a combined (Composite) score is used for the clinical assessment of the present invention. This composite score combines two established scores, one for the cognitive function (ADAS-cog (Alzheimer's Disease Assessment Scale-cognitive subscale)) and one for the functional ability (ADCS-ADL (Alzheimer's Disease Co-operative Study—Activities of Daily Living Inventory)). The adapted ADAS-cog combines items that assess cognitive function. The adapted ADCS-ADL includes items that are sensitive to functional ability. […]
Combined composite according to the present invention: =1.67*Word recall+1.35*Orientation+1.42*Word Recognition+0.55*Recall Instructions+0.81*Spoken Language+1.01*Word Finding+5.42*ONB+0.15*VPAL+0.19*Category Fluency+0.28*Belongings+0.35*Shopping+0.23*Hobbies+0.38*Beverage+0.37*Meal+0.23*Current Events+0.26*TV+0.33*Keeping Appointments+0.37*Travel+0.33*Alone+0.35*Appliance+0.49*Clothes+0.36*Read+0.62*Telephone+0.33*Writing
The primary efficacy variables are the change from baseline (CFB) in cognition as measured by an adapted ADAS-cog, CFB in function as measured by an adapted ADCS-ADL and a combination of CFB in cognition and function as measured by a combined composite:
ADAS-cog and other items included in the adapted ADAS-cog were measured at Visits 1, 2, 3, 5, 6, 7, 8, 9 and 10 or EDV. ADCS-ADL were measured at Visits 2, 5, 6, 7, 8, 9 and 10 or EDV. Items that contributing to the combined primary outcome were measured at Visits 2, 5, 6, 7, 8, 9 and 10 or EDV.
The primary efficacy outcomes all range from 0 to 100. […] Before a composite was calculated, contributing items that are scored in the opposite direction were reversed. […]

[2] = test system: patients with early AD; test: AFF006 clinical trial: patient disposition, reason for discontinuation; type: in vivo, human
Protocol: Data supporting the invention are derived from a randomized clinical trial in early AD patients. The study (AFF006; Eudract: 2009-016504-22) randomized early AD patients into 5 treatment arms. Patients of 2 study arms received either 1 mg aluminium or 2 mg aluminium. In total, 99 early AD patients were enrolled into the 2 study arms. Participation of a given patient lasted 18 months.
AFF006 was conducted as a randomized, placebo-controlled, parallel group, double-blind, multi-center phase II study and assessed the clinical and immunological activity as well as the safety and tolerability of repeated s.c. administrations of i.a. aluminium (different doses) in patients with early AD, as defined in the protocol. It was performed in a total of 6 countries: Austria, France, Germany, Slovakia, Czech Republic and Croatia.
The clinical trial comprised 10 regular outpatient visits and 6 telephone interviews. Up to four weeks before start of treatment, a screening visit (Visit 1) was performed to ensure suitability of the patients for the clinical trial and to establish the patients' baseline characteristics. Following screening, eligible patients were randomly allocated to the treatment groups. After randomization at week 0, patients received 6 injections with either 1 or 2 mg aluminium. Injections were applied s.c. by the investigator at weeks 0, 4, 8, 12, 40 and 65 (Visit 2, 3, 4, 5, 7 and 9).
adverse events (AEs) and serious adverse events (SAEs) (number of patients who withdrew due to AEs; reason for withdrawal)

[3] = test system: respective immunizing peptide; test: ELISA titer of vaccination induced IgG Abs against immunizing peptide in Tg2576-mice; type: in vivo; details: 6x s.c. at 4-week intervals, plasma at sacrification, background 1/100, FIG. 6A
Protocol: Alum doses used were equivalent to 2 mg/ml. Vaccination induced Abs were measured in plasma samples taken at sacrification (SeqID 1 (n=10), […], KLH-Alum (n=10) and Alum only (n=8)). Samples were analyzed for their concentration of IgG Abs against specific peptides. Values depicted are the titer calculated as OD max/2 (at 405 nm) plus SEM. IgG response towards the respective immunizing peptide (SeqID 1: anti SeqID 1; SeqID 2: anti SeqID 2, KLH-Alum: anti KLH, Alum: anti AD02); B) Reactivity towards human Aβ1-40/42 after immunization. […] Background for this assay was set to 1/100, indicated by black lines and an asterisk in A+B.
Substrates used include human (BACHEM, CH) Aβ1-40/42 (at 5 μg/ml), KLH (1 μg/ml) and peptide-Bovine serum albumin (BSA) conjugates (SeqID 1 and SeqID 2, 1 μM). Optical density (OD) was measured at 405 nm using a micro-well reader (Tecan, CH). ODmax/2 was calculated.
To test the immunogenicity of two Aβ targeting vaccines SeqID 1-KLH-Alum and SeqID 2-KLH Alum in comparison to KLH-Alum and Alum (Aluminium-oxyhydroxide) only, Tg2576-mice were injected 6×, s.c., at 4-week intervals with either conjugate-vaccine containing 30 μg net peptide, equivalent doses of KLH formulated with Alum or Alum only. […] Vaccination induced Abs were measured in plasma samples taken at sacrification (SeqID 1 (n=10), SeqID 2 (n=8), KLH-Alum (n=10) and Alum only (n=8)).

aluminium oxyhydroxide
parameters informing on the progression of the disease (change in Composite score) ([1]; 2 mg group vs 1 mg group, all patients, FIG. 1): compares favourably | Adapted ADAS-cog: disease progression ([1]; 2 mg group, over 18 months, FIG. 3): Slowing of disease progression | effect on disease progression (Composite score) in mild population ([1]; mild population (baseline MMSE score of 24 and higher), 2 mg vs 1 mg, FIG. 2): most pronounced in the cohort of patients in earlier disease stages | Reason for Discontinuation from the Study: Death: subjects % ([2]; 1 mg s.c., N = 48): (4.2%) | Reason for Discontinuation from the Study: Death: subjects n ([2]; 1 mg s.c., N = 48): 2 | Reason for Discontinuation from the Study: Death: subjects % ([2]; 2 mg s.c., N = 51): (0.0%) | Reason for Discontinuation from the Study: Death: subjects n ([2]; 2 mg s.c., N = 51): 0 | IgG titer towards the peptide used for immunization (ODmax/2) [3]: did not elicit signals above background

From patent US10646565B2, “Treatment of alzheimer'S disease (AD) with an aluminum salt” (AFFIRIS AG, priority 2014, dated 2020)
